# How the values were obtained:
# E. coli SA/2 (ESBL) = assay: Kirby-Bauer disk diffusion; format: cell-based; conditions: 15 μg per disk
# Procedure: (§1) An initial screening of the antibacterial activity of the compounds was performed by the Kirby-Bauer disk diffusion method, as recommended by the Clinical and Laboratory Standards Institute (CLSI). Briefly, sterile 6 mm blank paper disks (Oxoid, Basingstoke, England) impregnated with 15 μg of each compound were placed on inoculated MH agar plates. A blank disk with dimethylsulfoxide (DMSO) was used as a negative control. MH inoculated plates were incubated for 18-20 h at 37 degrees C. At the end of incubation, the inhibition halos where measured. The MIC was used to determine the antibacterial activity of each compound, in accordance with the recommendations of the CLSI. Two-fold serial dilutions of the compounds were prepared in Mueller-Hinton Broth 2 (MHB2—Sigma-Aldrich, St. Louis, MO, USA) within the concentration range of 0.062-64 μg/mL. CTX ranging between 0.031-16 μg/mL was used as a control. Sterility and growth controls were included in each assay. Purity checks and colony counts of the inoculum suspensions were also performed in order to ensure that the final inoculum density closely approximates the intended number (5×10^5 CFU/mL). The MIC was determined as the lowest concentration of compound that inhibited growth of the bacteria. The MBC was assessed by spreading 10 μL of culture collected from wells showing no visible growth on MH agar plates. […] These assays were performed in duplicate.
# [1] = tested on: Pseudomonas aeruginosa ATCC 27853; assay: Kirby-Bauer disk diffusion; format: cell-based; conditions: 15 μg per disk
# Procedure: as §1
# [2] = tested on: Saprolegnia parasitica CBS 223.65; assay: MIC/MLC broth microdilution in GY broth; format: cell-based
# Procedure: The antifungal activity of compound 1 was evaluated for a wide range of fungal species, covering yeasts and filamentous fungi, including dermatophytes. […] This antimicrobial effect was fungicidal, with minimal lethal concentrations (MLC) being equal to, or one or two-fold higher than the respective MIC. Twenty-three fungal strains were used in this study, including reference strains and clinical isolates of yeasts and filamentous fungi. Yeast strains included reference strains (ATCC—American Type Culture Collection and CECT—Colección Española de Cultivos Tipo) and clinical isolates: C. albicans ATCC 10231, Candida krusei ATCC 6258, C. albicans H37, C. albicans FF172, C. albicans FF176, C. albicans DSY294, C. albicans DSY296, C. glabrata DSY562, C. glabrata DSY565 and Cryptococcus neoformans CECT 1078. […]
# Each well was then inoculated with approximately 1 mm^2 of mycelium. […] After 5-7 days of incubation at 24° C., MIC was recorded as the lowest concentration that prevented obvious mycelial growth in comparison to the compound-free controls. […]
# E. coli ATCC 25922 = assay: Checkerboard synergy with erythromycin; format: cell-based, Escherichia coli; conditions: E. coli ATCC 25922
# Procedure: (§2) The combined effect of compound 1 and CTX for E. coli SA/2, VAN for E. faecalis B3/101, COL for E. coli 2252, erythromycin for E. coli ATCC 25922, and OXA for S. aureus 66/1 was evaluated by the checkerboard method. […] The interaction between compound 1 and erythromycin was assessed for E. coli ATCC 25922. Gram-negative bacteria are intrinsically resistant to erythromycin, a macrolide that inhibits protein synthesis, and cannot penetrate the outer membrane of Gram-negative bacteria, which is impermeable to hydrophobic antibiotics. Ascertain ceragenins have been previously described to be able to enhance the efficacy of such antibiotics, this possibility was investigated for compound 1 and a FICI of 0.6 was obtained.
# S. aureus 66/1 = assay: Checkerboard synergy with OXA; format: cell-based, Staphylococcus aureus
# Procedure: as §2
# E. faecalis ATCC 29212 = assay: Bacterial biofilm formation inhibition (crystal violet); format: cell-based, Enterococcus faecalis
# Procedure: In an embodiment, the antibiofilm activity of compound 1 was performed as follows. Given its bactericidal effect, the impact of compound 1 on the biofilm formation of reference strains was studied.
# The effect of compound 1 on bacterial biofilm formation was evaluated through quantification of total biomass, using the crystal violet method, as previously described ([FIG. 6]). […] A control with an appropriate concentration of DMSO, as well as a negative control (TSB alone) was included. Sterile 96-well flat-bottomed untreated polystyrene microtiter plates were used. After a 24 h incubation at 37 degrees C., the biofilms were heat-fixed for 1 h at 60 degrees C. and stained with 0.5% (v/v) crystal violet (Quimica Clinica Aplicada, Amposta, Spain) for 5 min. The stain was resolubilized with 33% (v/v) acetic acid (Acetic acid 100%, AppliChem, Darmstadt, Germany) and the biofilm biomass was quantified by measuring the absorbance of each sample at 570 nm in a microplate reader (Thermo Scientific Multiskan® EX, Thermo Fisher Scientific, Waltham, MA, USA). The background absorbance (TSB or TSB+1% glucose without inoculum) was subtracted from the absorbance of each sample and the data are presented as a percentage of control. Three independent assays were performed for reference strains, with triplicates for each experimental condition.
structure (smiles),measurement,setting,value
"C[C@H](CCC(=O)NCCN)[C@H]1CC[C@H]2[C@@H]3CC[C@@H]4C[C@H](O)CC[C@]4(C)[C@H]3C[C@H](O)[C@]12C [Compound 1, (R)—N-(2-aminoethyl)-4-((3R,5R,8R,9S,10S,12S,13R,14S,17R)-3,12-dihydroxy-10,13-dimethylhexadecahydro-1H-cyclopenta[a]phenanthren-17-yl) pentanamida]",Disk diffusion,E. coli SA/2 (ESBL),8 mm
same,Disk diffusion,[1],8 mm
same,MIC,[2],32 to 64 mg/L
same,MLC,[2],32 to 64 mg/L
same,combined effect with erythromycin (in words),E. coli ATCC 25922; checkerboard,No synergistic interactions
same,fractional inhibitory concentration index (FICI),E. coli ATCC 25922; with erythromycin,0.6
same,combined effect with OXA (in words),S. aureus 66/1,No synergistic interactions
same,biofilm formation (in words),"E. faecalis ATCC 29212; 2×MIC and MIC, 24 h",significantly inhibited
same,minimal biofilm inhibitory concentration (MBIC),"E. faecalis ATCC 29212; 80% reduction of biofilm formation, E. faecalis ATCC 29212",< 4 µg/mL

# Reference: patent US20250002450A1, “CATIONIC STEROID COMPOUNDS, METHOD OF OBTAINING THEREOF, FORMULATIONS COMPRISING THEREOF AND THEIR USES” (UNIVERSIDADE DO PORTO, priority 2021, published 2025)
